Legend:
[1] = target: Kappa-type opioid receptor (Homo sapiens, UniProt P41145); conditions: Compound concentration 10.0 uM
[2] = target: Muscarinic acetylcholine receptor M2 (Homo sapiens, UniProt P08172); assay: CHRM2 Eurofins SafetyScan (Receptor)
Chain of Muscarinic acetylcholine receptor M2 (P08172 whole entry): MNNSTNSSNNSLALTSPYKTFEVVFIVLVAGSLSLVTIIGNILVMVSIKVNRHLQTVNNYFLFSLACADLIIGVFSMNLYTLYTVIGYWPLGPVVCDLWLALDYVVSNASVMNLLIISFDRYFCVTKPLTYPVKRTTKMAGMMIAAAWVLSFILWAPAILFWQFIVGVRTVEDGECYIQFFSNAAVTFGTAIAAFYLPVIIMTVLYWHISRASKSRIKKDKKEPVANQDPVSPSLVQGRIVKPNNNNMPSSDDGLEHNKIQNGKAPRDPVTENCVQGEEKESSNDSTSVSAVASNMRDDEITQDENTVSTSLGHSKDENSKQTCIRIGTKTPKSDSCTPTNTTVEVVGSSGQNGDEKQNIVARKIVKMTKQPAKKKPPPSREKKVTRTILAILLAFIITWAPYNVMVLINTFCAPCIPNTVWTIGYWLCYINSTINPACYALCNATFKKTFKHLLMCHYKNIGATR

Chain of Kappa-type opioid receptor (P41145 whole entry): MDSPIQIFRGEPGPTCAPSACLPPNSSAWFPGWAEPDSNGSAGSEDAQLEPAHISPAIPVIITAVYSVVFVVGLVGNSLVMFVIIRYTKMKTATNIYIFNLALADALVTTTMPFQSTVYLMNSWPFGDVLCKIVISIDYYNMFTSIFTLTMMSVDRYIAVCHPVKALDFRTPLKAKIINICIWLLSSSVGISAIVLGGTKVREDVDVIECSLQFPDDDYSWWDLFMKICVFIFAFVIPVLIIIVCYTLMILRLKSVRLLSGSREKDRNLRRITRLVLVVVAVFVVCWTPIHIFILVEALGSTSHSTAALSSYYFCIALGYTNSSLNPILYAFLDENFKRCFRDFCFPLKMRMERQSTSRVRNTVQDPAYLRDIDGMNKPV

## Cc1cn([C@H](C)CC#N)c(=O)c2cc(Cn3nc(C(F)F)cc3Cl)nn12
[1]
  inhibition: 2.27%
[2]
  EC50: > 10 µM
  IC50: > 10 µM
